Data taken from publication PMC12031237, “Toxicity Assessment of (4Z)-Lachnophyllum and (4Z,8Z)-Matricaria Lactones: Implications for Environmental Safety of Bioherbicides” (Toxins, 2025).
Values after ≈ are worked out from the molar mass of the structure shown. Values joined by “and” are separate entries in the source; they are usually repeats but may differ in a detail not shown here. Equal values may be shown once. “Also recorded” adds a separate entry of the source. Read-outs that look alike come from different tables or passages of the source.

Experiments:
C. elegans = test: Nematode survival bioassay in soil, ASTM E2172-01; type: in vivo; details: for mortality: 24 h exposure, across tested concentrations (1.73 to 94 mg L^−1); for Test Score: N2, Bristol variant (wild type), Caenorhabditis elegans, in vivo, 24 h
Procedure: The nematode bioassay was carried out using the Caenorhabditis elegans wild-type strain N2, Bristol variant, according to the ASTM E2172—01 Standard Method (2014). Culture was maintained on NGM (nematode growth media) plates seeded with Escherichia coli (uracil-deficient OP50 strain) and stored at 20 °C. The tests were conducted using age-synchronized adult nematodes, obtained by lysing gravid nematodes with a bleaching solution (10 g/L NaOH, 10.5 g/L NaOCl), followed by centrifugation and washing with an M9 mineral medium (2.2 mM KH2PO4, 4.2 mM Na2HPO4, 85.6 mM NaCl, and 1 mM MgSO4). The synchronized nematodes were then transferred to NGM agar plates and left to recover overnight.
Soil samples (2.33 g) were hydrated to 35–45% of their dry weight using K-medium in centrifuge tubes. Ten worms were transferred to each tube and exposed to the soil samples for 24 h at 20 °C. […] Treatments were performed in triplicate, with worms kept unfed during the exposure period. Nematodes were extracted by centrifugation (2000 rpm, 2 min) using silica gel (Ludox TM 50, Sigma-Aldrich, St. Louis, MO, USA) with a specific density of 1.13 g/mL. The supernatant was then transferred to 100 mm glass Petri dishes and washed with Keller (K) medium. Extracted individuals were counted under a microscope (40× magnification), with mortality as the measured endpoint. Test validity required a minimum of 80% nematode recovery and 90% survival in the control group.

A. fischeri = test: Bioluminescence (light) inhibition test, ISO 11348-3; details: for EC50 / inhibition at 3.125 µg/mL: Aliivibrio fischeri, 0.5 h; for EC50: read-out: EC50 (light inhibition), 30 min exposure; for inhibition at 3.125 µg/mL: read-out: light inhibition
Procedure: The bioluminescence inhibition test (30 min) was detected with the A. fischeri (NRRLB-11177) supplied by MicroBioTest, Gent, Belgium, and according to ISO 11348-3 [59]. The bioluminescence was determined by the luminometer Microtox (Model 500 analyzer, New Castle, DE, USA) at 490 nm. To provide the required osmotic pressure for the bacterium, the stock solution was diluted to perform the test in saline water solution (2% sodium chloride, NaCl). The concentrations tested correspond to 0.19, 0.39, 0.78, 1.56, and 3.12 mg L^−^1 and a negative control of 0 mg L^−^1. Toxicity tests were performed in triplicate with a control, and the percentage luminescence inhibition was expressed as the ratio of the decrease in bacterial light production to the remaining light.
(§1) Data analysis was conducted using RStudio for Windows (Version 2024.09.1). Dose–response models were applied to estimate the effective concentrations (EC10 and EC50) for the tested endpoints using the “drc” package. For D. magna, the data were modeled with a binomial log-logistic approach, whereas data for R. subcapitata, A. fischeri and L. sativum were fitted to log-logistic models with the upper limit constrained to 100. Furthermore, to ensure assay sensitivity and validity, a positive control exposed to potassium dichromate for the aquatic species and copper chloride for C. elegans was tested under the same experimental conditions.

[1] = Hazard classification and weight score over the test battery; details: for hazard classification: classes I (no acute hazard) to V (very high acute hazard); for Weight Score [%]: overall, all tests performed
Procedure: When possible, the EC50 values derived from the tests were used for toxicity classification following the methodology in [65]. Compounds were categorized into five hazard classes, ranging from Class I (no acute hazard) to Class V (very high acute hazard). Additionally, weight scores for each test were calculated to quantify the relative level of toxicity, with scores assigned as follows: 0 (no significant toxic effect), 1 (significant toxic effect), 2 (toxic effect), and 3 (100% toxic effect). The weight score for each compound, based on the tests performed, was expressed as a percentage.

L. sativum = test: Plant germination and growth phytotoxicity test; type: in vivo, Lepidum sativum; details: 72 h exposure; for germination: tested concentrations up to 94 mg L^−1; for EC50: Lepidium sativum, read-out: EC50 (shoot length)
Procedure: Lepidum sativum seeds were purchased from Microbiotests (Gent, Belgium) and were used for the phytotoxicity test. Tests were conducted following the standard method. Seeds (n = 10) were placed in 10 g of soil medium and exposure was carried out in triplicates. […] Germination (%) and root elongation inhibition were combined to calculate the germination index (GI, %).

[2] = Stability (photodegradation) in ISO 8692:2012 medium, quantified by HPLC; type: physicochemical; details: 20 °C, 254 nm light
Procedure: For the photodegradation assays, 3 mg of MAT and 3 mg of LAC were separately dissolved in 150 µL of DMSO and added to 3 mL of International Organization for Standardization (ISO) 8692:2012 medium. The solutions were exposed to 254 nm of light for up to 16 days. At specific time intervals (1, 2, 3, 6, and 16 days), 400 µL of the solutions were collected and analyzed by TLC using n-hexane/EtOAc (75:25, v/v) as the eluent, with MAT and LAC standard samples serving as references.
HPLC analysis was performed in isocratic mode and with the same ISO medium solutions, using MeCN–H2O (0.1% v/v formic acid) at a 60:40 (v/v) ratio as the mobile phase, with a flow rate of 0.5 mL/min. Detection was carried out at 220 nm with a 20 μL injection loop, monitoring the chromatogram for over 50 min to identify potential degradation products. Each sample was analyzed in triplicate. Control solutions containing only the culture medium and DMSO (without MAT or LAC) were also analyzed under identical conditions to ensure specificity.
Calibration curves for MAT and LAC were prepared by injecting standard samples at concentrations ranging from 0.022 to 2.2 mg for MAT and 0.004 to 2.2 mg for LAC. These standards were used to optimize the method and quantify the degradation products.

D. magna = test: Crustacean immobility acute test, ISO 6341; type: in vivo, Daphnia magna; details: for immobilization: 6.91 mg L^−1, 24 h exposure; for EC50: Daphnia magna, read-out: EC50 (immobilization); for Hazard Ranking: GHS ranking of 48 h EC50, this study
Procedure: The immobility acute test (48 h) with D. magna was conducted according to ISO 6341 [60]. D. magna was selected from laboratory stock cultures at the Hygiene Laboratory of the Department of Biology of the University of Naples Federico II, placed in ISO medium, and fed daily with the microalgae R. subcapitata. For the test, five neonates (third brood, <24 h old) were exposed in 10 mL of ISO medium to the following corresponding concentrations: 0.22, 0.43, 0.86, 1.73, 3.46, 6.91, 13.83, 27.65, and 55.30 mg L^−^1 and a negative control of 0 mg L^−^1. Each concentration had 4 replicates, and immobility was assessed after 24 and 48 h of exposure.
as §1

R. subcapitata = test: Algal growth inhibition test, ISO 8692; details: for Test Score / EC10 (growth inhibition): 72 h exposure; for EC50 / inhibition at 3.125 µg/mL: Raphidocelis subcapitata; for EC50: read-out: EC50 (growth inhibition); for inhibition at 3.125 µg/mL: read-out: growth inhibition
Procedure: The algal growth inhibition test (72 h) with R. subcapitata was carried out according to ISO 8692 [58]. The algal density was determined by spectrophotometric analysis (DR5000, Hach Lange GbH, Weinheim, Germany) at 670 nm. The concentrations tested correspond to 0.19, 0.39, 0.78, 1.56, and 3.12 mg L^−^1 and a negative control of 0 mg L^−^1. The growth inhibition was calculated as the difference in growth at the end of the test of the sample and the control group. Toxicity tests were carried out in triplicate.
as §1

[3] = 30 min exposure, standard error in brackets, n = 3
[4] = estimated from the model, outside of the tested concentrations
[5] = standard error in brackets, n = 3

SMILES	mortality (C. elegans)	Test Score (C. elegans)	Test Score (A. fischeri; 30 min exposure)	EC10 (light inhibition) (A. fischeri; [3])	inhibition at 3.125 µg/mL (A. fischeri)	hazard classification [1]	Weight Score [%] [1]	EC10 (shoot length) (L. sativum)	Test Score (L. sativum)	germination (L. sativum)	EC50 (L. sativum)	Degraded Compound (%) ([2]; exposition time 1 day)	Degraded Compound (%) ([2]; exposition time 2 days)	Degraded Compound (%) ([2]; exposition time 3 days)	Degraded Compound (%) ([2]; exposition time 6 days)	immobilization (D. magna)	EC10 (immobilization) (D. magna; 24 h exposure)	EC10 (immobilization) (D. magna; 48 h exposure)	EC50 (immobilization) (D. magna; 48 h exposure)	Test Score (D. magna; 48 h exposure)	further results
CCCC#C/C=C1/C=CC(=O)O1 [LAC, (4Z)-lachnophyllum lactone]	no mortality	0	1	0.524 mg L^−1 and 0.524 (0.212) mg L^−1	< 40%	Class II	53.33%	70.87 mg L^−1 and 70.87 (195.32) mg L^−1	3	no effects; also recorded: unaffected	85.9 µg/mL (≈ 530 µM)	8.5%	19.23%	26.58%	28.24%	100%	1.67 (0.313) mg L^−1	1.499 mg L^−1 and 1.49 (1.063) mg L^−1	1.728 µg/mL (≈ 10.7 µM)	3	EC50 (light inhibition) (A. fischeri; 30 min exposure, estimated from the model, outside of the tested concentrations): 8.078 µg/mL (≈ 49.8 µM); EC50 (A. fischeri; [4]): 8.07 µg/mL (≈ 49.8 µM); EC50 (D. magna; 24 h, 24 h exposure): 2.44 µg/mL (≈ 15 µM); EC50 (D. magna; 48 h, 48 h exposure): 1.72 µg/mL (≈ 10.6 µM); Hazard Ranking (D. magna): *** (toxic (<1 mg L^−1 ≤ 10 mg L^−1)); Test Score (R. subcapitata): 1; EC10 (growth inhibition) (R. subcapitata; [5]): 0.304 mg L^−1 and 0.304 (0.125) mg L^−1; EC50 (R. subcapitata; 72 h): 9.88 µg/mL (≈ 60.9 µM); inhibition at 3.125 µg/mL (R. subcapitata; 72 h): 36%
C/C=C\C#C/C=C1/C=CC(=O)O1 [MAT, (4Z,8Z)-matricaria lactone]	no mortality	0	2	0.063 mg L^−1 and 0.063 (0.013) mg L^−1	~80%	Class II	46.66%	38.48 mg L^−1 and 38.48 (23.979) mg L^−1	2	no effects; also recorded: unaffected	82.3 µg/mL (≈ 514 µM)	90% and 89.74%	90.06%	90.38%	94.55%	100%	3.11 (1.894) mg L^−1	1.215 mg L^−1 and 1.21 (0.294) mg L^−1	2.239 µg/mL (≈ 14 µM)	3	EC50 (A. fischeri; [5]): 0.642 µg/mL (≈ 4.01 µM); EC50 (D. magna; 24 h, 24 h exposure): 3.56 µg/mL (≈ 22.2 µM); EC50 (D. magna; 48 h, 48 h exposure): 2.23 µg/mL (≈ 13.9 µM); Hazard Ranking (D. magna): *** (toxic (<1 mg L^−1 ≤ 10 mg L^−1)); growth inhibition (average) (R. subcapitata; 72 h, concentrations 0.19 to 1.56 mg L^−1, negative = stimulation): approximately −10%; Test Score (R. subcapitata): 0; EC10 (growth inhibition) (R. subcapitata; [4]): 3.417 mg L^−1 and 3.417 (0.620) * mg L^−1; EC50 (R. subcapitata; 72 h): 4.52 µg/mL (≈ 28.2 µM); inhibition at 3.125 µg/mL (R. subcapitata; 72 h): -2.4%
